Experiments:
serum albumin = experiment: Selectivity of fluorescence response to insulin over serum albumins (BSA, HSA, HSA lipid free); assay type: binding; conditions: over serum albumin (BSA, HSA, HSA lipid free; FIG. 1c)
Description: FIG. 1c is a graph showing the selectivity of Insulin Green to insulin over bovine serum albumin (BSA), human serum albumin (HSA) and HSA lipid free.

insulin = insulin (Homo sapiens, UniProt P01308); experiment: Fluorescence response of CLU compounds to insulin; assay type: binding
insulin, sequence (P01308 25-54 limits assumed, species assumed): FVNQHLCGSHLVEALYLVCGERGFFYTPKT
insulin, sequence (P01308 90-110 limits assumed, species assumed): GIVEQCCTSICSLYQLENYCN
Method: All the reagents and solvents were purchased from Aldrich, Alfa and Acros organics and used without further purification. All reactions were performed in oven-dried glassware under a positive pressure of nitrogen. Analytical TLC was carried out on Merck 60 F254 silica gel plate (0.25 mm layer thickness) and visualization was done with UV light. Column chromatography was performed on Merck 60 silica gel (230-400 mesh). NMR spectra were recorded on a Bruker Avance 300 NMR spectrometer. Chemical shifts are reported as 6 in units of parts per million (ppm) and coupling constants are reported as a J value in Hertz (Hz). Mass of all the compounds was determined by LC-MS of Agilent Technologies with an electrospray ionization source. Spectroscopic measurements were performed on a fluorometer and UV/VIS instrument, Synergy 4 of bioteck company and Gemini XS fluorescence plate reader. The slit width was 1 nm for both excitation and emission.
The present invention includes the synthesis of fluorescent chalcone-urea library (CLU), which was prepared on solid support. The CLU library was screened against four different concentrations of insulin (0.2, 0.1, 0.05 and 0.025 mg/mL) in HEPES buffer (20 mM, pH=7.4). Based on fluorescent intensity, 5 hits with more than 50-fold increase were selected (Table 2). CLU-381 was further derivatized due to the synthetic convenience to render 8 derivatives (Table 3).

COc1ccc(CNC(=O)Nc2ccc(C(=O)/C=C/c3ccc(N(CCO)CCO)cc3)cc2)cc1 [Insulin Green]
selectivity for insulin over other proteins (serum albumin): good selectivity over other proteins
fluorescent increase to insulin (insulin; 200 μg/mL insulin (FIG. 1a)): 94 fold
responsiveness to insulin among the 8 CLU-381 derivatives (insulin; 8 derivatives tested against insulin): most responsive compound
